Assay results reported in ChEMBL document CHEMBL4507295 (2021).

Experiments:
[1] = molecular target: Phosphatidylinositol 4,5-bisphosphate 3-kinase catalytic subunit beta isoform (Homo sapiens) (UniProt P42338); settings: Compound concentration 1000.0 nM
[2] = molecular target: Tyrosine-protein phosphatase non-receptor type 2 (Homo sapiens, UniProt P17706); assay: Panlabs assay; design: compound concentration 10 uM
[3] = molecular target: Insulin receptor (Homo sapiens) (UniProt P06213); settings: Rattus norvegicus; Compound concentration 10.0 uM
Caspase-7 (Homo sapiens) = Caspase-7 (Homo sapiens) (UniProt P55210); assay: Peptidase, CASP7 (Caspase 7) Eurofins-Panlabs enzyme assay; settings: Compound concentration 10.0 uM
[4] = molecular target: T1, Muscarinic acetylcholine receptor M1 (Homo sapiens) (UniProt P11229); assay: Agonism inflection point assay
T1 sequence (whole entry): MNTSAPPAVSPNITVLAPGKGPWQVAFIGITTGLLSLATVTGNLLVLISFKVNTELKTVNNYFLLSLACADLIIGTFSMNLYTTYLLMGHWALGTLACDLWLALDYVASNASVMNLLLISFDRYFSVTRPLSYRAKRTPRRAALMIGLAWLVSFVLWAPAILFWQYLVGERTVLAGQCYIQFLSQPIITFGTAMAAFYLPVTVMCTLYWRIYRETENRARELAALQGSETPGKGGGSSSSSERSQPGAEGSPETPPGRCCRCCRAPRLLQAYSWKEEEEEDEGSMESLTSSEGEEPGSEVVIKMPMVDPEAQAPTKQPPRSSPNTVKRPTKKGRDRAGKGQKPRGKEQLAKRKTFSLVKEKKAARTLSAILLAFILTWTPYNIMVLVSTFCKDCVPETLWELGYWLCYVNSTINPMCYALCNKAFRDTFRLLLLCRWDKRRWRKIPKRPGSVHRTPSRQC

[5] = molecular target: 5-hydroxytryptamine receptor 2B (Homo sapiens) (UniProt P41595); settings: Compound concentration 10.0 uM
5-hydroxytryptamine receptor 2B (Homo sapiens), sequence (P41595 whole entry): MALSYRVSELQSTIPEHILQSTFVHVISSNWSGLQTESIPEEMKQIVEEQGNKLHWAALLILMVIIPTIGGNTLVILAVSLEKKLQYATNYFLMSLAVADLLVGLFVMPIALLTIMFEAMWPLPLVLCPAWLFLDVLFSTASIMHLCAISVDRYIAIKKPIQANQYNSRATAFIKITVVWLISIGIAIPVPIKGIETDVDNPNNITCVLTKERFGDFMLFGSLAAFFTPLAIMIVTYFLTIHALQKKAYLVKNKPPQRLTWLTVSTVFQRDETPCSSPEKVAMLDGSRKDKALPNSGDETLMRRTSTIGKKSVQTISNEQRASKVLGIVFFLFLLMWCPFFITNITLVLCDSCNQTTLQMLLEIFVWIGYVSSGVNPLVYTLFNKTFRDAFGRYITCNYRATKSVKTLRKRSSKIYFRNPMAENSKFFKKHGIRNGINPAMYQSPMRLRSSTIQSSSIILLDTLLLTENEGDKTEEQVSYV

[6] = molecular target: Kappa-type opioid receptor (Homo sapiens) (UniProt P41145); settings: Compound concentration 10.0 uM
[7] = molecular target: Vasoactive intestinal polypeptide receptor 1 (Homo sapiens) (UniProt P32241); assay: Inhibition of Vasoactive Intestinal Peptide VIP1 at 10 µM in the Eurofins-Panlabs radioligand binding assay (Eurofins_assay_287010); settings: Compound concentration 10.0 uM
Caspase-1 (Homo sapiens) = Caspase-1 (Homo sapiens) (UniProt P29466); assay: Inhibition of Peptidase, CASP1 (Caspase 1) at 10 µM in the Eurofins-Panlabs enzyme assay (Eurofins_assay_163000); settings: Compound concentration 10.0 uM
[8] = molecular target: Phosphodiesterase 3 (Homo sapiens) (UniProt Q14432+Q13370); assay: Inhibition of Phosphodiesterase PDE3 at compound concentration of 10.0 uM in the Eurofins-Panlabs enzyme assay (Eurofins_assay_152000); format: protein assay; design: substrate with concentration 1.01 uM [3H] cAMP + cAMP, incubation time 20 min, incubation temperature 25 C; settings: Compound concentration […]
[9] = molecular target: D(3) dopamine receptor (Homo sapiens) (UniProt P35462); settings: Compound concentration 10.0 uM
[10] = molecular target: Vascular endothelial growth factor receptor 1 (Homo sapiens) (UniProt P17948); assay: Protein Tyrosine Kinase, FLT1 (VEGFR-1) Eurofins-Panlabs enzyme assay; settings: Compound concentration 10.0 uM
Vascular endothelial growth factor receptor 1 (Homo sapiens), sequence (P17948 whole entry): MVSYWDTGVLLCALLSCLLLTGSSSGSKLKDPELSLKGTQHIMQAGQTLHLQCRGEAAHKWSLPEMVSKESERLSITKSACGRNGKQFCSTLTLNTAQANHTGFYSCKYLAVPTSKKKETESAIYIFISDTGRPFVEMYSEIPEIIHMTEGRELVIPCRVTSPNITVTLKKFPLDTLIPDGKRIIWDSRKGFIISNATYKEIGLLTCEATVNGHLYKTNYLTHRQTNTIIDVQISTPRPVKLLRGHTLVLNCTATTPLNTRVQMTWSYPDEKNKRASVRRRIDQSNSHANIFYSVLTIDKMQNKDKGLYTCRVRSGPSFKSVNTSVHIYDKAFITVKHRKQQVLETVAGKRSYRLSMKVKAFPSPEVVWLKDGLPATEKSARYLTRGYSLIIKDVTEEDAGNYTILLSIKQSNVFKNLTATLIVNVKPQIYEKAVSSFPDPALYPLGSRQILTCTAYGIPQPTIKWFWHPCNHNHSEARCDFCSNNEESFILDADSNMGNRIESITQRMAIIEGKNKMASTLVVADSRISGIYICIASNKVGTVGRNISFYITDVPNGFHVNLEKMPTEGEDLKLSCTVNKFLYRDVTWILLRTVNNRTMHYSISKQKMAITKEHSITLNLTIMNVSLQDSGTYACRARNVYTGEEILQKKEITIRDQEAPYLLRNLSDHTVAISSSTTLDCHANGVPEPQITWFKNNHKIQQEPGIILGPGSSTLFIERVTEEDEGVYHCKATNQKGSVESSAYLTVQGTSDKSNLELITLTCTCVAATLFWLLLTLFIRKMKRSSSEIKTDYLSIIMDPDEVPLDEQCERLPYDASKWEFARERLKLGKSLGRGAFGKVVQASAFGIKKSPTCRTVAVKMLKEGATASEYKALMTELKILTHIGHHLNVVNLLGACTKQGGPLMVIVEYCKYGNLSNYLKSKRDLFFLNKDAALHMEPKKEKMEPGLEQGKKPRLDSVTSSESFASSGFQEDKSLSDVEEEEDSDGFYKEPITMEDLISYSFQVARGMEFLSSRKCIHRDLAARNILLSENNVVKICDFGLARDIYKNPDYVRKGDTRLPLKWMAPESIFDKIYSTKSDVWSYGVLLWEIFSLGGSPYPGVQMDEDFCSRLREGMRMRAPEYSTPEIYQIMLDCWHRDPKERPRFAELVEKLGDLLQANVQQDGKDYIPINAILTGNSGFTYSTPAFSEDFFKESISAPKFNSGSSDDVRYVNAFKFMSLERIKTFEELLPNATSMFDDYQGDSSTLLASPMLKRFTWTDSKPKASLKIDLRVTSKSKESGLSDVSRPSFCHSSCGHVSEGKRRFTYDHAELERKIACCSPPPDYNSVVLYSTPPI

[11] = molecular target: Substance-P receptor (Homo sapiens) (UniProt P25103); assay: Tachykinin NK1 Eurofins-Panlabs radioligand binding assay; settings: Compound concentration 10.0 uM
[12] = molecular target: Cannabinoid receptor 1 (Homo sapiens) (UniProt P21554); assay: Cannabinoid CB1 Eurofins-Panlabs radioligand binding assay; settings: Compound concentration 10.0 uM
Cannabinoid receptor 1 (Homo sapiens), sequence (P21554 whole entry): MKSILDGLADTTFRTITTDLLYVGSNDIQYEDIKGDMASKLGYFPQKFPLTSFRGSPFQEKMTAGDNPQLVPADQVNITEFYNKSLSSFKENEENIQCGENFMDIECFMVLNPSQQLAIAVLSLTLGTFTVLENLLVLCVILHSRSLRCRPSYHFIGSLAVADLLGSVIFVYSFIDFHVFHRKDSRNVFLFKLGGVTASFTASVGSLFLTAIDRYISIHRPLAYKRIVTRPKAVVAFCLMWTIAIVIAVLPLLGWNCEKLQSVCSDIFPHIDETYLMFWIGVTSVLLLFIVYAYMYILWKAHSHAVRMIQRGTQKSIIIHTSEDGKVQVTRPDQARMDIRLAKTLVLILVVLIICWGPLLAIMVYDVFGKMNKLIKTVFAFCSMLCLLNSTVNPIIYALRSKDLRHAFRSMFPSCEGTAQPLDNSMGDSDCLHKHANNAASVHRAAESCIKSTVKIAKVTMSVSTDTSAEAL

Homo sapiens [13] = species: Homo sapiens; assay: Prostanoid, Thromboxane A2 (TP) Eurofins-Panlabs radioligand binding assay; design: ligand concentration 5 nM, non-specific ligand with concentration 1 µM SQ-29548, incubation time 30 min, incubation temperature 25 °C; settings: Compound concentration 10.0 uM
[14] = molecular target: Somatostatin receptor type 5 (Homo sapiens) (UniProt P35346); assay: Somatostatin sst5 Eurofins-Panlabs radioligand binding assay; settings: Compound concentration 10.0 uM
Somatostatin receptor type 5 (Homo sapiens), sequence (P35346 whole entry): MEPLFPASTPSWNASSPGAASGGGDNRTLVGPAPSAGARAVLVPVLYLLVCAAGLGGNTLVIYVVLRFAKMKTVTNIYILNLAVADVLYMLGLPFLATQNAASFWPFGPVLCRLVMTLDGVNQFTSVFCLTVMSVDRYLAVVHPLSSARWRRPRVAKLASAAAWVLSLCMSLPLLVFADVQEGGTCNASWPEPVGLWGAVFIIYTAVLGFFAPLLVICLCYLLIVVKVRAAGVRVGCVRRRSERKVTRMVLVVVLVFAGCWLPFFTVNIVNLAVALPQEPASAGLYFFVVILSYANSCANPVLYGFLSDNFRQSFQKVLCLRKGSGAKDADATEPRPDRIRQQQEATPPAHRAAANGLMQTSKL

[15] = molecular target: T2, D(4) dopamine receptor (Homo sapiens) (UniProt P21917); assay: Dopamine D4.4 Eurofins-Panlabs radioligand binding assay; design: ligand concentration 1.2 nM; settings: Compound concentration 10.0 uM
T2 sequence (whole entry): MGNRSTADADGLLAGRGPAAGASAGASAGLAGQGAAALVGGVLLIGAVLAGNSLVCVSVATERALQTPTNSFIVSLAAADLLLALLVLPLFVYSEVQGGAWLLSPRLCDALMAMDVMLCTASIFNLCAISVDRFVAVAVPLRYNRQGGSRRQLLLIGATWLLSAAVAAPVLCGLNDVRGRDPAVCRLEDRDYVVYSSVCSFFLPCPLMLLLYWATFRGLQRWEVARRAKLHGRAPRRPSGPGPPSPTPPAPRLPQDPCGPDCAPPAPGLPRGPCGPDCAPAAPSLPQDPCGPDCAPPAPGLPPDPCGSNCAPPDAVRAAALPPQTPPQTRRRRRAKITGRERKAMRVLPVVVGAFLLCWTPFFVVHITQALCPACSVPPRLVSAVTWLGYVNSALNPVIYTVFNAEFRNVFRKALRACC

[16] = molecular target: Epidermal growth factor receptor (Homo sapiens) (UniProt P00533); assay: Protein Tyrosine Kinase, EGF Receptor Eurofins-Panlabs enzyme assay; design: substrate with concentration 10 µg/mL Poly(Glu:Tyr), incubation time 60 min, incubation temperature 25 °C; settings: Compound concentration 10.0 uM
[17] = molecular target: cGMP-specific 3',5'-cyclic phosphodiesterase (Homo sapiens) (UniProt O76074); settings: Compound concentration 100.0 uM
Homo sapiens [18] = species: Homo sapiens; assay: Protein Serine/Threonine Kinase, MAPK14 (p38α) Eurofins-Panlabs enzyme assay; design: substrate with concentration 10 µg/mL Myelin Basic Protein (MBP), incubation time 60 min, incubation temperature 25 °C; settings: Compound concentration 10.0 uM
[19] = molecular target: C-X-C chemokine receptor type 2 (Homo sapiens) (UniProt P25025); assay: Inhibition of Chemokine CXCR2 (IL-8RB) at 10 µM in the Eurofins-Panlabs radioligand binding assay (Eurofins_assay_244500); settings: Compound concentration 10.0 uM
[20] = molecular target: Sodium-dependent noradrenaline transporter (Homo sapiens) (UniProt P23975); settings: Compound concentration 10.0 uM
[21] = molecular target: Adenosine receptor A2a (Homo sapiens) (UniProt P29274); settings: Compound concentration 10.0 uM
[22] = molecular target: Platelet-activating factor receptor (Homo sapiens) (UniProt P25105); assay: Inhibition of Platelet Activating Factor (PAF) at 10 µM in the Eurofins-Panlabs radioligand binding assay (Eurofins_assay_265010); settings: Compound concentration 10.0 uM
Rattus norvegicus = species: Rattus norvegicus; assay: Protein Serine/Threonine Kinase, PKC, Non-Selective Eurofins-Panlabs enzyme assay; settings: Compound concentration 10.0 uM
[23] = molecular target: High affinity choline transporter 1 (Homo sapiens) (UniProt Q9GZV3); assay: Transporter, Choline Eurofins-Panlabs radioligand binding assay; design: ligand concentration 0.75 nM; settings: Rattus norvegicus; Compound concentration 10.0 uM
High affinity choline transporter 1 (Homo sapiens), sequence (Q9GZV3 whole entry): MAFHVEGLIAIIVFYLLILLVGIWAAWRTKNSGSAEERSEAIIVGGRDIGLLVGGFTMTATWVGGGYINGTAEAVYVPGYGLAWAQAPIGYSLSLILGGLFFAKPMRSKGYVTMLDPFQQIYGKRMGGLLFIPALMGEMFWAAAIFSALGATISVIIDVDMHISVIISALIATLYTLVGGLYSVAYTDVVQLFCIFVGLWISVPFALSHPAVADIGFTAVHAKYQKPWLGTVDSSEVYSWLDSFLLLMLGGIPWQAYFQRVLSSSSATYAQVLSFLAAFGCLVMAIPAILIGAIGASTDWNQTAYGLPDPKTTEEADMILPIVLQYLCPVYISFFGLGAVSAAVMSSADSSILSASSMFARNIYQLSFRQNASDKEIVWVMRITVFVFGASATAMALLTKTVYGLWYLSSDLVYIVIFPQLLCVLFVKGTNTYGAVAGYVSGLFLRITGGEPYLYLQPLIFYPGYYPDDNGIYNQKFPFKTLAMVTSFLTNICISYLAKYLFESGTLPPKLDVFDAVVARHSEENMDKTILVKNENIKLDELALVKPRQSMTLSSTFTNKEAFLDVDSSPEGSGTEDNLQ

[24] = molecular target: Glutamate NMDA receptor; GRIN1/GRIN2A (Homo sapiens) (UniProt Q05586+Q12879); assay: NMDA-NR1a/NR2a Eurofins-Panlabs radioligand binding assay; format: protein-complex assay; settings: Compound concentration 10.0 uM
[25] = molecular target: Alpha-2C adrenergic receptor (Homo sapiens) (UniProt P18825); assay: Adrenergic alpha2C Eurofins-Panlabs radioligand binding assay; design: ligand concentration 1 nM, non-specific ligand with concentration 10 µM WB-4101, incubation time 60 min, incubation temperature 25 °C; settings: Compound concentration 10.0 uM
[26] = molecular target: Glutamate (NMDA/AMPA/Kainate) (Rattus norvegicus) (UniProt P35439+Q00959+Q00960+Q00961+Q62645+Q8VHN2+Q9R1M7+P22756+Q9ULK0+Q01812+P19491+P19492+P19493+P42260+P42264+P19490+Q63273+O43424); assay: Glutamate, Non-Selective Eurofins-Panlabs radioligand binding assay; format: protein-complex assay; design: ligand concentration 3.75 nM; settings: Compound concentration 10.0 uM
[27] = molecular target: 5-hydroxytryptamine receptor 7 (Homo sapiens, UniProt P34969); assay: GPCRScan assay: inhibition of 5-HT7A; design: radioligand conc. used [nm] 5.0 – 6.0, parental cells Stable HEK
5-hydroxytryptamine receptor 7, sequence (P34969 whole entry): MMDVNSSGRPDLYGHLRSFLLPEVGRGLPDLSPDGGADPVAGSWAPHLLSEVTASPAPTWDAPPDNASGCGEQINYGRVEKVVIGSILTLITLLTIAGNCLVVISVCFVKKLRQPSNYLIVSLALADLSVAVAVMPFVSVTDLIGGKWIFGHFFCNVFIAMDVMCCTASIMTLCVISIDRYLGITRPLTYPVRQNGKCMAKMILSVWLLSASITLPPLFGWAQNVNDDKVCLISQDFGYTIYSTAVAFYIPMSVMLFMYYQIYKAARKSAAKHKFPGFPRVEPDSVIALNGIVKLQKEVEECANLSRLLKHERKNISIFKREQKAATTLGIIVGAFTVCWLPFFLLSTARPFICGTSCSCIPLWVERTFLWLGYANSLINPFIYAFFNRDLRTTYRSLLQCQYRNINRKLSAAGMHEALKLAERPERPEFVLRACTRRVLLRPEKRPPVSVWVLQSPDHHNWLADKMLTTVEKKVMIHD

Phosphatidylinositol 4,5-bisphosphate 3-kinase catalytic subunit beta isoform (Homo sapiens), sequence (P42338 whole entry, looked up, canonical isoform): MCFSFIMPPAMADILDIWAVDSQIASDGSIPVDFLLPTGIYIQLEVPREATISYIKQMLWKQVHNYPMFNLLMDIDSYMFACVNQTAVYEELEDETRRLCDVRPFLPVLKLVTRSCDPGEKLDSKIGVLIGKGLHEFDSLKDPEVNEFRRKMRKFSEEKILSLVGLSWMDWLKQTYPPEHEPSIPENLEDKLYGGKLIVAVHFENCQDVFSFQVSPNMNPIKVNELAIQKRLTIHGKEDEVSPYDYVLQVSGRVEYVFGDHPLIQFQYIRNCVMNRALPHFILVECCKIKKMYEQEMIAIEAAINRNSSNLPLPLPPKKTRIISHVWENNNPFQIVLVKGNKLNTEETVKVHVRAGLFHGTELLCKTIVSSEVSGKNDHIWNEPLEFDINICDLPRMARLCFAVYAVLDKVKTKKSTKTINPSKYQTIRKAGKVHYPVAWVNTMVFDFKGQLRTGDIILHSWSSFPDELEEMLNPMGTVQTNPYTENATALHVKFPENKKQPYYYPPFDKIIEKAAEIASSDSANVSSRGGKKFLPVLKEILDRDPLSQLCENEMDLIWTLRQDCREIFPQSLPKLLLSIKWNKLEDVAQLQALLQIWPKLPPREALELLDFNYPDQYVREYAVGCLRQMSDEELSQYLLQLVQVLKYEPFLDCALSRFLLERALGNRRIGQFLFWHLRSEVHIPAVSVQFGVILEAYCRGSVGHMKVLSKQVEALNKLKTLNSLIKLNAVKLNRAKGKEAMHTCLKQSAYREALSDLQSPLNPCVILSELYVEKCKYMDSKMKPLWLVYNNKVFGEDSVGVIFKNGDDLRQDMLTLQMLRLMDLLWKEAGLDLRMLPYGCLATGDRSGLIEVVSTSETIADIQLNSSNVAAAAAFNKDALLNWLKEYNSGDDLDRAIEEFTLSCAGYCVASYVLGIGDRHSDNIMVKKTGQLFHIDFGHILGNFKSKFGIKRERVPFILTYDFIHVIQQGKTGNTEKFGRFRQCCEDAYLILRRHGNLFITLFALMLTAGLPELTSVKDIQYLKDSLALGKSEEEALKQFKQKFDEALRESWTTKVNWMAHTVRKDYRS

`N#CC1(c2ccccn2)CCN(Cc2cc(C(=O)N3CCCC3)c(=O)n3ccccc23)CC1` was tested, and the residual activity [1] was 100%.

`N#CC1(c2ccccn2)CCN(Cc2cc(C(=O)O)c(=O)n3ccccc23)CC1` [MSD-M1PAM] was tested, and the IC50 [2] was 10 µM (not active), the inhibition [3] was 3% and the inhibition (Caspase-7 (Homo sapiens)) was 5%. It also gave an Agonism inflection point [4] of 7.38 µM, an inhibition [5] of -2% and an inhibition [6] of 2%. It also gave an inhibition [7] of 14%, an inhibition (Caspase-1 (Homo sapiens)) of 7% and an inhibition [8] of 1%. The inhibition [9] was -9%, the inhibition [10] was 0% and the inhibition [11] was 0%. It also gave an inhibition [12] of -3%, an inhibition (Homo sapiens [13]) of 21% and an inhibition [14] of -5%. It also gave an inhibition [15] of 3%, an inhibition [16] of 5% and an inhibition [17] of 21%. It also gave an inhibition (Homo sapiens [18]) of -3%, an inhibition [19] of 0% and an inhibition [20] of 8%. For the same molecule, the inhibition [21] was 6%, the inhibition [22] was -5% and the inhibition (Rattus norvegicus) was 9%. For the same molecule, the inhibition [23] was 29%, the inhibition [24] was -6% and the inhibition [25] was 15%. The inhibition [26] was 8% and the Ki [27] was 10 µM.
